# Calls of active or inactive are those of the source. The calls are words filed in the database; no cut-off is given here.
# Tests used:
# [1] = test system: BMMC; assay: Anti-osteoporosis activity in C57BL/6 mouse BMM cells assessed as inhibition of M-CSF/RANKL-induced osteoclastogenesis by measuring reduction in size and number of osteoclasts incubated for 5 days with media replenishment for every 48 hrs measured by TRAP-staining based analysis; format: functional, cell-based; conditions: dose 0.03-10 µM, time 5.0 day
# [2] = Toxicity in OVX-induced bone loss C57BL/6 mouse model assessed as effect on serum ALT level at 10 mg/kg, po QD for 4 weeks; format: organism-based; conditions: in vivo, 672 h, dose 10 mg/kg/day
# [3] = Toxicity in OVX-induced bone loss C57BL/6 mouse model assessed as effect on serum ALP level at 10 mg/kg, po QD for 4 weeks; format: organism-based; conditions: in vivo, 672 h, dose 10 mg/kg/day
# [4] = Toxicity in OVX-induced bone loss C57BL/6 mouse model assessed as effect on serum TG level at 10 mg/kg, po QD for 4 weeks; format: organism-based; conditions: in vivo, 672 h, dose 10 mg/kg/day
# [5] = test system: Mus musculus; assay: Antiosteoporotic activity against OVX-induced bone loss C57BL/6 mouse model assessed as increase in trabecular bone mass in femoral metaphysis at 10 mg/kg, po QD for 4 weeks by microCT analysis; format: functional, organism-based; conditions: dose 10.0 mg/kg/day
# [6] = Toxicity in OVX-induced bone loss C57BL/6 mouse model assessed as effect on spleen morphology at 10 mg/kg, po QD for 4 weeks; format: organism-based; conditions: in vivo, 672 h, dose 10 mg/kg/day
# [7] = test system: BMMC; assay: Anti-osteoporosis activity in C57BL/6 mouse BMM cells assessed as inhibition of M-CSF/RANKL-induced osteoclastogenesis by measuring reduction in multinucleated TRAP+ cells incubated for 5 days with media replenishment for every 48 hrs measured by TRAP-staining based analysis; format: functional, cell-based; conditions: C57BL/6, BMMC
# [8] = test system: RAW264.7; assay: Inhibition of RANKL-induced ERK phosphorylation in mouse RAW264.7 cells at 1 to 10 uM pretreated for 4 hrs prior to RANKL stimulation for 20 mins by western blot analysis; format: cell-based; conditions: dose 1-10 µM, time 260.0 min
# [9] = target: c-Jun N-terminal kinase (Mus musculus) (UniProt Q91Y86+Q9WTU6+Q61831); assay: Inhibition of RANKL-induced JNK phosphorylation in mouse RAW264.7 cells at 1 to 10 uM pretreated for 4 hrs prior to RANKL stimulation for 20 mins by western blot analysis; format: cell-based; conditions: dose 1-10 µM, time 260.0 min
# c-Jun N-terminal kinase (Mus musculus), sequence (Q61831 whole entry, looked up): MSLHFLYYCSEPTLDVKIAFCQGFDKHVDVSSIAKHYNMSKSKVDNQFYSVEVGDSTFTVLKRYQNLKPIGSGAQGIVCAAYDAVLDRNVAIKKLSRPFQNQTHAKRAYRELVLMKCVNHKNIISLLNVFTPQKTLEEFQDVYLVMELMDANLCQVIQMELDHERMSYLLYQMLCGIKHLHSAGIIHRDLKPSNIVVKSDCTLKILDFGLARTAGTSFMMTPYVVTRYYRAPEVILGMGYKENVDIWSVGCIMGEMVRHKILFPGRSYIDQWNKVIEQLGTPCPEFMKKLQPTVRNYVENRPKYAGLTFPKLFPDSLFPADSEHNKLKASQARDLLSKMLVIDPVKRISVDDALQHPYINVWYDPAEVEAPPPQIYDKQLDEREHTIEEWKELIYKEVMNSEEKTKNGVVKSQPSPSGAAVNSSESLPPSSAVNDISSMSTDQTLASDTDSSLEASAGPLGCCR
# c-Jun N-terminal kinase (Mus musculus), sequence (Q91Y86 whole entry, looked up): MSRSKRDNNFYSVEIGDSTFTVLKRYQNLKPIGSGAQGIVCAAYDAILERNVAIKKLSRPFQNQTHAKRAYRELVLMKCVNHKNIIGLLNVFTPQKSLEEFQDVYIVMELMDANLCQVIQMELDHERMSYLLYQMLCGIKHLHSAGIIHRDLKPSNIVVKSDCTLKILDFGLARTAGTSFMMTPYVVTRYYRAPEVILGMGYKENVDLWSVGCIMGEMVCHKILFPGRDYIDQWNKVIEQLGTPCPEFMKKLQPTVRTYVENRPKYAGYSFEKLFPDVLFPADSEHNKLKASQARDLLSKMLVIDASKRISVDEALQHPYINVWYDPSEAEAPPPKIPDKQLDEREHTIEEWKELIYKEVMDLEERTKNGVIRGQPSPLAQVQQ
# c-Jun N-terminal kinase (Mus musculus), sequence (Q9WTU6 whole entry, looked up): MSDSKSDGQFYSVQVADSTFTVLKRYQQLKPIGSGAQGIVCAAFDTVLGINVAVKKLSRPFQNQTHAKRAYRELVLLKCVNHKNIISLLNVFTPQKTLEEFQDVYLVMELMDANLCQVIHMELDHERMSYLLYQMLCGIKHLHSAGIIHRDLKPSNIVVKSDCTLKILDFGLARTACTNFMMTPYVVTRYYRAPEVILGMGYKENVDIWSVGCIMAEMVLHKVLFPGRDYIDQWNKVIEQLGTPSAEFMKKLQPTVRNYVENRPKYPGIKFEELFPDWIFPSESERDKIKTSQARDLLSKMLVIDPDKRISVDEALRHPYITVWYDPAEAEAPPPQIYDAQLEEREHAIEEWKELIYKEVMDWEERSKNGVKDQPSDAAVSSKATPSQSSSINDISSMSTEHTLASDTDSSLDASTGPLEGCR
# [10] = Toxicity in OVX-induced bone loss C57BL/6 mouse model assessed as effect on serum AST level at 10 mg/kg, po QD for 4 weeks; format: organism-based; conditions: in vivo, 672 h, dose 10 mg/kg/day
# [11] = test system: C3H 10T1/2; assay: Induction of osteoblast differentiation in mouse C3H10T1/2 cells assessed as increase in calcium nodule formation at 1 to 10 uM measured after 14 days by alizarin red staining assay; format: functional, cell-based; conditions: dose 1-10 µM, time 14.0 day
# [12] = test system: Mus musculus; assay: Antiosteoporotic activity against OVX-induced bone loss C57BL/6 mouse model assessed as decrease in osteocalcin secretion in serum at 10 mg/kg, po QD for 4 weeks; format: functional, organism-based; conditions: dose 10.0 mg/kg/day
# [13] = Toxicity in OVX-induced bone loss C57BL/6 mouse model assessed as effect on serum CK level at 10 mg/kg, po QD for 4 weeks; format: organism-based; conditions: in vivo, 672 h, dose 10 mg/kg/day
# [14] = Toxicity in OVX-induced bone loss C57BL/6 mouse model assessed as effect on heart morphology at 10 mg/kg, po QD for 4 weeks; format: organism-based; conditions: in vivo, 672 h
# [15] = Toxicity in OVX-induced bone loss C57BL/6 mouse model assessed as effect on serum CHO level at 10 mg/kg, po QD for 4 weeks; format: organism-based; conditions: in vivo, 672 h, dose 10 mg/kg/day
# [16] = Toxicity in OVX-induced bone loss C57BL/6 mouse model assessed as effect on serum creatinine level at 10 mg/kg, po QD for 4 weeks; format: organism-based; conditions: in vivo, 672 h, dose 10 mg/kg/day
# [17] = test system: Mus musculus; assay: Antiosteoporotic activity against OVX-induced bone loss C57BL/6 mouse model assessed as increase in bone volume/total bone volume in femoral metaphysis at 10 mg/kg, po QD for 4 weeks; format: functional, organism-based; conditions: dose 10.0 mg/kg/day
# [18] = test system: BMMC; assay: Anti-osteoporosis activity in C57BL/6 mouse BMM cells assessed as inhibition of M-CSF/RANKL-induced bone resorption by measuring suppression of reabsorbing pits formation after 48 hrs by hydroxyapatite assay using Leica inverted microscope; format: functional, cell-based; conditions: dose 1-10 µM
# [19] = test system: BMMC; assay: Downregulation of osteoclastogenesis-associated gene expression in C57BL/6 mouse BMM cells assessed as inhibition of M-CSF/RANKL-induced NFATc1 expression at 5 uM after 5 days by qRT-PCR analysis; format: functional, cell-based; conditions: time 5.0 day
# [20] = test system: RAW264.7; assay: Inhibition of RANKL-induced NFkappaB signaling pathway in mouse RAW264.7 cells assessed as reduction in IkappaB alpha phosphorylation at 10 uM preincubated for 4 hrs followed by RANKL stimulation for 10 mins and measured by Western blot analysis; format: cell-based; conditions: time 250.0 min
# [21] = test system: C3H 10T1/2; assay: Induction of osteoblast differentiation in mouse C3H10T1 /2 cells assessed as increase in ALP expression at 1 to 10 uM measured after 7 days by ALP staining based assay; format: functional, cell-based; conditions: dose 1-10 µM, time 7.0 day
# [22] = test system: Mus musculus; assay: Antiosteoporotic activity against OVX-induced bone loss C57BL/6 mouse model assessed as restoration of E2 level in serum at 10 mg/kg, po QD for 4 weeks; format: functional, organism-based; conditions: dose 10.0 mg/kg/day
# [23] = test system: BMMC; assay: Anti-osteoporosis activity in C57BL/6 mouse BMM cells assessed as inhibition of M-CSF/RANKL-induced bone resorption at 10 uM after 48 hrs by hydroxyapatite assay using Leica inverted microscope; format: functional; conditions: C57BL/6, BMMC
# [24] = test system: BMMC; assay: Downregulation of osteoclastogenesis-associated gene expression in C57BL/6 mouse BMM cells assessed as inhibition of M-CSF/RANKL-induced MMP9 expression at 5 uM after 5 days by qRT-PCR analysis; format: functional, cell-based; conditions: time 5.0 day
# [25] = test system: Mus musculus; assay: Antiosteoporotic activity against OVX-induced bone loss C57BL/6 mouse model assessed as decrease in PINP secretion in serum at 10 mg/kg, po QD for 4 weeks; format: functional, organism-based; conditions: dose 10.0 mg/kg/day
# [26] = Toxicity in OVX-induced bone loss C57BL/6 mouse model assessed as effect on kidney morphology at 10 mg/kg, po QD for 4 weeks; format: organism-based; conditions: in vivo, 672 h
# [27] = test system: BMMC; assay: Cytotoxicity against C57BL/6 mouse BMM cells assessed as reduction in cell viability at 30 uM measured after 48 hrs in presence of M-CSF by CCK8 assay; format: cell-based
# [28] = test system: BMMC; assay: Downregulation of osteoclastogenesis-associated gene expression in C57BL/6 mouse BMM cells assessed as inhibition of M-CSF/RANKL-induced CTSK expression at 5 uM after 5 days by qRT-PCR analysis; format: functional, cell-based; conditions: time 5.0 day
# [29] = Toxicity in OVX-induced bone loss C57BL/6 mouse model assessed as effect on lung morphology at 10 mg/kg, po QD for 4 weeks; format: organism-based; conditions: in vivo, 672 h, dose 10 mg/kg/day
# [30] = test system: RAW264.7; assay: Inhibition of RANKL-induced NFkappaB signaling pathway in mouse RAW264.7 cells assessed as reduction in IkappaB alpha degradation at 10 uM preincubated for 4 hrs followed by RANKL stimulation for 10 mins and measured by Western blot analysis; format: cell-based; conditions: time 250.0 min
# [31] = test system: RAW264.7; assay: Effect on NFkappaB p65 expression in RANKL-stimulated mouse RAW264.7 cells at 1 to 10 uM preincubated for 4 hrs followed by RANKL stimulation for 10 mins and measured by Western blot analysis; format: functional; conditions: dose 1-10 µM, time 250.0 min
# [32] = test system: Mus musculus; assay: Antiosteoporotic activity against OVX-induced bone loss C57BL/6 mouse model assessed as increase in trabecular number in femoral metaphysis at 10 mg/kg, po QD for 4 weeks; format: functional, organism-based; conditions: dose 10.0 mg/kg/day
smiles,measurement,setting,value
C=C1CC[C@@H]2[C@](C)(CNCc3ccc(F)cc3)[C@H](O)CC[C@@]2(C)[C@@H]1/C=C/C1=CCOC1=O,Activity,[1],Dose-Dependent Effect
same,Activity,[2],Non-Toxic
same,Activity,[3],Non-Toxic
same,Activity,[4],Non-Toxic
same,Activity,[5],Active
same,Activity,[6],Non-Toxic
same,IC50,[7],350 nM
same,inhibition,[8],inactive
same,inhibition,[9],inactive
same,Activity,[10],Non-Toxic
same,Activity,[11],inactive
same,Activity,[12],Active
same,Activity,[13],Non-Toxic
same,Activity,[14],Non-Toxic
same,Activity,[15],Non-Toxic
same,Activity,[16],Non-Toxic
same,Activity,[17],Active
same,Activity,[18],Dose-Dependent Effect
same,inhibition,[19],Active
same,inhibition,[20],Active
same,Activity,[21],inactive
same,Activity,[22],Active
same,inhibition at 10 µM,[23],100%
same,inhibition,[24],Active
same,Activity,[25],Active
same,Activity,[26],Non-Toxic
same,Activity,[27],Non-Toxic
same,inhibition,[28],Active
same,Activity,[29],Non-Toxic
same,inhibition,[30],Active
same,Activity,[31],inactive
same,Activity,[32],Active

# — ChEMBL document CHEMBL4819024, “Synthesis and evaluation of andrographolide derivatives as potent anti-osteoporosis agents in vitro and in vivo” (Eur J Med Chem, 2021)
